Measured values taken from paper PMC9558053, “Development of a novel high-throughput screen for the identification of new inhibitors of protein S-acylation” (The Journal of Biological Chemistry, 2022).

Test system: endogenous calnexin S-acylation in HEK293T cells
Test: mPEG-click S-acylation of endogenous calnexin in HEK293T cells
Assay type: cell-based, human
Conditions: 25 and 50 μM, 4 h pretreatment + 4 h labeling
Source text: Finally, we tested whether TTZ-1 and TTZ-2 were able to block the S-acylation of endogenous proteins in the absence of zDHHC enzyme overexpression. In order to detect the S-acylation of endogenous proteins, we used mPEG-click, a technique that we developed recently ([49]) that is better suited for the click chemistry–based analysis of S-acylation of endogenously expressed proteins. In this assay, cells are labeled with either palmitate (C16:0), or C16:0-azide, lysed, and then subjected to click chemistry with alkyne-mPEG 5K. The addition of mPEG 5K moieties to S-acylated proteins increases their apparent molecular weight, which can be detected directly by immunoblotting. HEK293T cells were pretreated for 4 h with either TTZ-1 or TTZ-2 at 25 and 50 μM and then labeled with fatty acids for another 4 h in the presence of the compounds. We first assessed the S-acylation of endogenous SNAP23 as it is a close relative of SNAP25 (SNAP25 is not expressed in the non-neuronal HEK293T cell line) ([50], [51]). […]
Figure 10 Activity of TTZ-1 and TTZ-2 against the S-acylation of endogenous proteins in mammalian cells. […] The data were quantified, and the graphs below each set of membranes show mean ± SEM of normalized S-acylation of either endogenous SNAP23 (A) or endogenous calnexin (B). […]

| Structure (SMILES) | S-acylation of endogenous calnexin |
| --- | --- |
| CCCCCCCOc1ccc(C(=O)Nc2cccc3c2OC(c2nnn[nH]2)CN3)cc1 (centres unmarked) [TTZ-1, N-(2-(1H-Tetrazol-5-yl)-3,4-dihydro-2H-benzo[b][1,4]oxazin-8-yl)-4-(heptyloxy)benzamide] | decreased |
| O=C(Nc1cccc2c1OC(c1nnn[nH]1)CN2)c1ccc(OCCCCc2ccccc2)cc1 (centres unmarked) [TTZ-2, N-(2-(1H-Tetrazol-5-yl)-3,4-dihydro-2H-benzo[b][1,4]oxazin-8-yl)-4-(4-phenylbutoxy)benzamide] | decreased |
